{
  "source": "patent US7476662B2",
  "about": "“Substituted tetracyclic imidazole derivatives, processes for their preparation, pharmaceutical compositions comprising them and their use as a medicine” (Janssen Pharmaceutica N.V., priority 2001, dated 2009)",
  "key": {"Rhesus monkeys": {"test_system": "Rhesus monkeys", "assay": "ICP in anaesthetised non-traumatised Rhesus monkeys", "format": "in vivo, Rhesus monkey", "details": "i.v. infusion 2.5 and 5 mg/kg over 2.5 and 5 min (n=2/condition)", "procedure": "The effect of Compound 1 on ICP was tested in a limited number of anaesthetised non-traumatised Rhesus monkeys with a i.v. infusion of a dose of 2.5 and 5 mg/kg over 2.5 and 5 min respectively (n=2/condition)."}, "traumatized rats": {"test_system": "traumatized rats", "assay": "Repeated application on elevated ICP in traumatized rats", "format": "in vivo, rat", "details": "i.v. 1 mg/kg/min during 10 min, repeated, FIG. 3", "procedure": "Compound 1 was given 2 times with intermittent periods of 20 min at a i.v. dose of 1 mg/kg/min during 10 min, starting a first time 20 min after induction of severe head injury.\nMannitol was given i.v. in the same time windows as Compound 1 at a dose of 0.125 g/kg/min. The control animals received the solvent (containing 10% HP-β-CD, pH 4) only.\nThis effect is amplified after termination of each, infusion period."}, "non-traumatised rats": {"test_system": "non-traumatised rats", "assay": "ICP, MABP and CPP in anaesthetised non-traumatised rats", "format": "in vivo, rat", "details": "i.v. 0.5 mg/kg/min during 10 minutes, followed by 0.1 mg/kg/min during 50 min", "procedure": "The effect of Compound 2, Compound 1 and Racemate (comp. 1 and comp. 2) on ICP, MABP and CPP was tested in anaesthetised non-traumatised rats. The compounds were administered i.v. and the same dose was given as in traumatized rats (0.5 mg/kg/min during 10 minutes, followed by 0.1 mg/kg/min during 50 min)."}, "rabbits": {"test_system": "rabbits", "assay": "Cold lesion-induced rise of ICP in rabbits", "format": "in vivo, rabbit", "details": "rabbits one day after cryo-lesion", "procedure": "Cryo-lesions were induced in adult rabbits to obtain a pathological ICP that is caused by tissue oedema. A 8 mm stainless steel rod was placed at predetermined coordinates on the exposed skull of deeply anaesthetised rabbits and cooled for […] with liquid nitrogen. One day later the animals were re-anaesthetised and ICP and blood pressure continuously recorded as described for the rat. After a stabilisation period of 15 min, Compound 1 was infused for 10 min at a dose of 2 mg/kg/min. Solvent (preclinical formulation containing 10% HP-β-CD, pH 4) was given for 10 min at a rate of […]."}, "Sprague-Dawley rats [1]": {"test_system": "Sprague-Dawley rats", "assay": "Changes in relevant physiological variables during treatment after severe CHI in rats", "format": "in vivo, rat", "details": "median average change over entire treatment period, % change of initial value; 0.5 mg/kg/min 10 min then 0.1 mg/kg/min 50 min, started 20 min after severe CHI; n = 10", "source_text": "A clinically relevant rat model for traumatic brain injury was used to test the compounds according to the invention. This model mimics several clinical features of traumatic brain injury, such as increased ICP, decreased cerebral perfusion pressure, morphologic alterations including diffuse axonal injury, neuronal necrosis and contusion, impairment of autoregulation of cerebral blood flow and reduction of brain oxygenation and was applied for screening drugs with ICP-lowering effects. Trauma was induced in intubated, isoflurane anesthetized (1.5% isoflurane in a mixture of 30% O2 and 70% N2O) Sprague-Dawley rats (380-400 g) stereotaxically positioned on a table mounted on 4 springs. A 400 g steel cylinder, protected with a 9 mm diameter silicon disc, was dropped on the unprotected skull from a height of either 70 cm or 50 cm (respectively ‘severe’ and ‘moderate’ head injury). The impact area was centered between bregma and lamda. ICP was recorded using a Codman microsensor probe inserted in the parietal cortex. In both severe and moderate head injuries the ICP increased immediately after trauma and remained elevated for several days. The severe head injury mode was used for the evaluation of pharmacological effects immediately after trauma (screening procedure). When survival and recovery from anesthesia was envisaged, the moderate head injury mode was applied. In pharmacological studies, animals with a pathological ICP between 12.5 and 35 mm Hg were included. The changes in ICP, mean arterial blood pressure (MABP) and cerebral perfusion pressure CPP (=[…]) were expressed as percentage of the initial value at onset of the treatment. Screening procedure: On a weekly base, 4 treated groups of 3 rats were compared with 3 saline treated animals. Since conventional statistical methods require a larger amount of animals, a sequential procedure was used. Sequential methods operate in different stages. At each stage, a group of animals was selected as homogeneous as possible. Animals were randomly allocated to either drugs or saline. The procedure allowed to make the decision of rejecting the drug, accepting the drug as active or to continue with a new group of animals in a next stage. Given the biological relevant level of activity that must be detected, the expected fraction of false positive and negative results was known and fixed. A sequential two-sample grouped rank test was used. […] Despite the variability in the individual data, the procedure consistently accepted reference treatments such as mannitol as active, while controls were rejected.\nTreatment was started at 20 min after severe head injury and involved administering a dose of 0.5 mg/kg/min during 10 minutes, followed by 0.1 mg/kg/min during 50 min."}, "Sprague-Dawley rats [2]": {"test_system": "Sprague-Dawley rats", "assay": "Dose response of a 10 min infusion in the rat CHI model", "format": "in vivo", "source_text": "A clinically relevant rat model for traumatic brain injury was used to test the compounds according to the invention. This model mimics several clinical features of traumatic brain injury, such as increased ICP, decreased cerebral perfusion pressure, morphologic alterations including diffuse axonal injury, neuronal necrosis and contusion, impairment of autoregulation of cerebral blood flow and reduction of brain oxygenation and was applied for screening drugs with ICP-lowering effects. Trauma was induced in intubated, isoflurane anesthetized (1.5% isoflurane in a mixture of 30% O2 and 70% N2O) Sprague-Dawley rats (380-400 g) stereotaxically positioned on a table mounted on 4 springs. A 400 g steel cylinder, protected with a 9 mm diameter silicon disc, was dropped on the unprotected skull from a height of either 70 cm or 50 cm (respectively ‘severe’ and ‘moderate’ head injury). The impact area was centered between bregma and lamda. ICP was recorded using a Codman microsensor probe inserted in the parietal cortex. In both severe and moderate head injuries the ICP increased immediately after trauma and remained elevated for several days. The severe head injury mode was used for the evaluation of pharmacological effects immediately after trauma (screening procedure). When survival and recovery from anesthesia was envisaged, the moderate head injury mode was applied. In pharmacological studies, animals with a pathological ICP between 12.5 and 35 mm Hg were included. The changes in ICP, mean arterial blood pressure (MABP) and cerebral perfusion pressure CPP (=[…]) were expressed as percentage of the initial value at onset of the treatment. Screening procedure: On a weekly base, 4 treated groups of 3 rats were compared with 3 saline treated animals. Since conventional statistical methods require a larger amount of animals, a sequential procedure was used. Sequential methods operate in different stages. […] Given the biological relevant level of activity that must be detected, the expected fraction of false positive and negative results was known and fixed. […]"}, "rat brain": {"test_system": "rat brain", "assay": "Near-infrared spectroscopy (NIRS) of the rat brain: brain hemoglobin concentration and oxygenation after moderate head injury", "format": "in vivo", "details": "24 h after moderate head injury; i.v. 0.5 mg/kg.min 10 min then 0.1 mg/kg.min 45 min", "source_text": "Near-infrared spectroscopy (NIRS) of the rat brain ‘in vivo’ allows to quantify non-invasively saturation of brain haemoglobin with oxygen (HbSat) and total brain haemoglobin concentration ([HbTot]). The latter is a measure for cerebral blood volume (CBV). Changes in the redox state of the mitochondrial enzyme cytochrome oxidase (CytOx), an indicator for tissue oxygenation, can also be monitored.\nHbSat is not affected by compound 1 and the racemate (Comp. 1 and Comp. 2)."}},
  "data": [
    {"compound": "Cc1nc2n(C)c3ccccc3n2c(=O)c1CCN1CCC(C2c3ccccc3CCn3c2nc2ccccc23)CC1Cc1ccccc1", "note": "(single isomer, unassigned) [Compound 1, (B)[(2α,4β)(A)]3-[2-(4-(11,12-dihydro-6H-benzimidazo [2,1-b][3]benzazepin-6-yl)-2-(phenylmethyl)-1-piperidinyl]ethyl]-2,10-dimethyl-pyrimido[1,2-a]benzimidazol-4(10H)-one (E)-2-butenedioate (2:3) hydrate (1:1)]", "values": [
      {"measurement": "pattern of ICP and blood pressure changes during and after infusion", "setting": "Rhesus monkeys", "value": "resembles the pattern of changes observed in cryo-lesioned rabbits"},
      {"measurement": "effect on ICP during infusion", "setting": "traumatized rats; first 20 min after severe head injury", "value": "rapid reduction of ICP"},
      {"measurement": "effect on ICP after termination of each infusion period", "setting": "traumatized rats", "value": "amplified"},
      {"measurement": "effect on blood pressure", "setting": "traumatized rats", "value": "drops during Compound 1 treatment but is restored again after this episode"},
      {"measurement": "effect on ICP, MABP and CPP", "setting": "non-traumatised rats", "value": "comparable with those obtained in the traumatized animals"},
      {"measurement": "blood pressure during infusion", "setting": "rabbits; 2 mg/kg/min for 10 min", "value": "drops"},
      {"measurement": "effect on ICP during infusion", "setting": "rabbits; 2 mg/kg/min for 10 min, FIG. 4", "value": "no immediate decrease in ICP"},
      {"measurement": "blood pressure when drug infusion is terminated", "setting": "rabbits; after 2 mg/kg/min for 10 min", "value": "comes back to the initial value"},
      {"measurement": "effect on ICP when drug infusion is terminated", "setting": "rabbits; after 2 mg/kg/min for 10 min, persists during entire recording period", "value": "significant ICP reduction"},
      {"measurement": "CPP (%)", "setting": "Sprague-Dawley rats [1]", "value": "−1.9", "unit": "%"},
      {"measurement": "ETCO2 (%)", "setting": "Sprague-Dawley rats [1]", "value": 2.2, "unit": "%"},
      {"measurement": "Heart rate(%)", "setting": "Sprague-Dawley rats [1]", "value": "−4.1", "unit": "%"},
      {"measurement": "ICP (%)", "setting": "Sprague-Dawley rats [1]", "value": "−15.4", "unit": "%"},
      {"measurement": "MABP (%)", "setting": "Sprague-Dawley rats [1]", "value": "−3.6", "unit": "%"},
      {"measurement": "Resp. rate(%)", "setting": "Sprague-Dawley rats [1]", "value": 5.3, "unit": "%"},
      {"measurement": "dose starting at which reduction in ICP is statistically significantly larger than in the solvent-treated group", "setting": "Sprague-Dawley rats [2]; 10 min infusion", "value": "≥ 1", "unit": "mg/kg/min"},
      {"measurement": "effect on ICP during treatment", "setting": "Sprague-Dawley rats [2]; 10 min infusion at 0.125, 0.25, 0.5, 1 and 2 mg/kg/min, FIG. 1", "value": "sustained dose-dependent decrease of ICP"},
      {"measurement": "effect on ICP in the 10 min period following the infusion", "setting": "Sprague-Dawley rats [2]; after 10 min infusion at 0.125-2 mg/kg/min, FIG. 2", "value": "highly significant dose-dependent effect on ICP remains present"},
      {"measurement": "effect on saturation of brain haemoglobin with oxygen (HbSat)", "setting": "rat brain", "value": "not affected"},
      {"measurement": "effect on total brain haemoglobin concentration [HbTot]", "setting": "rat brain", "value": "do not have a significant effect"}
    ]}
  ]
}
